{"source": "patent US12678440B2", "about": "“Compositions and methods for treating misfolded protein ocular disorders” (CASE WESTERN RESERVE UNIVERSITY, priority 2020, dated 2026)", "key": {"WT rhodopsin": {"tested_on": "WT rhodopsin", "test": "Immunoblot of rhodopsin, MTX plus BafA1 or MG-132, NIH3T3 (RHO^WT/GFP) cells", "format": "cell-based", "experimental": "Cells were seeded in 6-well plates at a density of 5×10^5 cells/well and cultured at 37° C. with 5% CO2 for 17 h. The medium was replaced with a fresh medium containing a corresponding concentration of compounds. After treatment for 24 h, cells collected and lysed in 150 μL PBS containing 0.1% SDS and complete protease inhibitor cocktail with 12 s of sonication on ice. Retina samples were lysed in 300 μL per retina of PBS containing 0.1% SDS and complete protease inhibitor cocktail under 24 s of sonication on ice. Protein concentrations were determined by measurements of OD280 nm using a Nanodrop spectrometer. To immunoblot rhodopsin, one hundred μg of total protein for NIH3T3 (RHO^P23H/GFP) cells, or twenty μg of total protein for NIH3T3 (RHO^WT/GFP) cells was loaded per well onto an SDS-PAGE gel. To detect other proteins, fifty μg of total protein was loaded per well. After separation by electrophoresis in 10% and 16% SDS-PAGE gels, proteins were transferred to a nitrocellulose membrane using a wet membrane electrotransfer cassette followed by blocking with 5% bovine serum albumin in PBS containing 0.05% Tween 20 for 1 h. The membranes were incubated with primary antibodies at 4° C. overnight following with appropriate secondary antibodies for 1 h at room temperature. […]"}, "[1]": {"tested_on": "chymotrypsin-like proteasome activity", "test": "Proteasome activity assay (Proteasome-Glo)", "format": "cell-based", "settings": "NIH3T3 (RHO^P23H/GFP) and NIH3T3 (RHO^WT/GFP) cells; 0.0195 to 10 μM, 24 h", "experimental": "NIH3T3 (RHO^P23H/GFP), NIH3T3 (RHO^WT/GFP) and NIH3T3 cells were seeded in a white-wall clear-bottom 384-well plate at 2500 cells/well in 20 μL of complete mediu. After 3 h of incubation, five μL/well of complete medium containing MTX was added to cells to treat cells with MTX at final concentrations from 0.0195 to 10 μM for 24 h. The cells treated with a complete medium containing 0.1% DMSO were used as the 100% control, and those treated with 5 μM MG-132 for 8 h were used as the 0% control. For endpoint proteasome activity measurement, each well was added with 25 μL of Proteasome-Glo™ Reagent containing the Suc-LLVY-Glo™ substrate (Promega, G8660, Madison, WI USA). The 384-well plate was shaken for 2 min to mix the solutions followed by a 24-min incubation at room temperature. Luminescence of each well was detected by a SpectraMax 13× microplate reader (Molecular Devices). The chymotrypsin-like proteasome activity was normalized by the 100% and 0% controls, respectively."}, "[2]": {"test": "Estimated initial vitreous concentration after IVI", "settings": "mouse vitreous volume about 5.3 μL"}, "Rho^P23H/+ mice": {"tested_on": "Rho^P23H/+ mice", "test": "Electroretinogram (ERG) after intravitreal injection", "format": "in vivo, mouse", "experimental": "The C57BL/6J (Rho^+/+) mice and Rho^P23H/P23H mice were purchased from Jackson Laboratory (Stock No 017628) generated by Dr. Krzysztof Palczewski's lab. The Rho^P23H/P23H mice were crossed with wild-type C57BL/6J mice to produce P23H heterozygotes mice. Genotyping for all strains was conducted as guided using forward and reverse primers: 1) GGTAGCACTGTTGGGCATCT (SEQ ID NO: 5); and 2) GACCCCACAGAGACAAGCTC (SEQ ID NO: 6), respectively. The PCR products at 573 and 399 bp indicated the P23H knock-in mutant and WT allele of the RHO gene, respectively. Mice were bred and housed under standard 12-h light/12-h dark conditions in the University of Pittsburgh animal facility. All animal experiments were approved by the University of Pittsburgh Institutional Animal Care and Use Committee (IACUC) following the guide for the Animal Welfare Act and Regulations.\nTo determine the effect of compounds on retina in vivo, we administered compounds directly into the vitreous space. Briefly, mice were treated with 1% tropicamide eye drops (Akorn, Lake Forest, IL USA) to dilate the pupils and then they were anesthetized with an intraperitoneal injection of ketamine (Henry Schein, Dublin, OH USA) at 80 mg/kg body weight (bw) and xylazine (Bimeda, Le Sueur, MN USA) at 7 mg/kg bw. One drop of 0.5% tetracaine hydrochloride (TCI, Tokyo, Japan) was applied to mouse eyes as topical anesthetics before injection. Eyes were kept lubricated during the injections by a 0.3% hypromellose eye gel (Alcon, Fort Worth, TX USA). A heating pad was used for maintaining body temperature. Mice were positioned to expose the sclera of the eyes. A 30-gauge needle (Medline, Northfield, IL USA) was used to puncture a hole through sclera behind limbus at a 45° angle. A 33-gauge blunt-end needle (Hamilton, Reno, NV USA) was used to be inserted into the hole and a total of 0.5 μL of sterile PBS or MTX in PBS was slowly injected into the posterior chamber and the needle was kept in place for about 30 seconds before a slow removal of the needle. A small amount of Triantibiotic ointment (Medline, Northfield, IL USA) was applied on the injection site to prevent infection. A single IVI with 25 or 100 pmol of MTX was administered to one eye of each Rho^P23H/+ mice at postnatal day (PND) 15, and PBS was injected to the other eye as vehicle control. We also performed four weekly IVIs of MTX or PBS to the second group of Rho^P23H/+ mouse eyes at PND 15, 22, 29 and 36.\nERG was performed using the Celeris system (Diagnosys, Lowell, MA, USA), as described previously. Before each test, mice were kept in the dark overnight. Pupils were dilated with 1% tropicamide (Akorn, Lake Forest, IL, USA). Mice were anesthetized with an intraperitoneal injection of ketamine at 80 mg/kg bw and xylazine at 7 mg/kg bw. Eyes were lubricated by a 0.3% hypromellose eye gel (Alcon, Fort Worth, TX, USA). A heating pad was used to maintain body temperature at 37° C. Scotopic ERG responses of dark-adapted eyes to ten flashes from 0.01 cd·s/m^2 to 30 cd·s/m^2 were recorded and averaged from three sweeps per flash intensity with inter-sweep intervals of 10 to 30 s. After exposed to 10 cd/m^2 illumination for 5 min, the photopic ERG responses were recorded from the light-adapted eyes in respond to flashes from 0.01 cd·s/m^2 to 30 cd·s/m^2 in addition to a 10 cd/m^2 background light. P-values were calculated by a two-way ANOVA to determine the statistical significance between the response amplitudes in the MTX-treated and vehicle (PBS) group. Factor 1, treatment condition; and factor 2, flash intensity."}, "[3]": {"settings": "single IVI 25 pmol at PND 15, ERG at PND 32, vs PBS or non-treated"}, "[4]": {"settings": "single IVI 100 pmol at PND 15, ERG at PND 32"}}, "data": [{"smiles": "CN(Cc1cnc2nc(N)nc(N)c2n1)c1ccc(C(=O)N[C@@H](CCC(=O)O)C(=O)O)cc1", "note": "[CL-009, N-[4-[[(2,4-diamino-6-pteridinyl)methyl]methylamino]benzoyl]-L-glutamic acid]", "values": [{"measurement": "WT rhodopsin level under BafA1 and MTX co-treatment (immunoblot)", "setting": "WT rhodopsin; 10 μM MTX + 100 nM BafA1, 24 h", "value": "accumulation of WT rhodopsin"}, {"measurement": "WT rhodopsin accumulation under MG-132 plus MTX (immunoblot)", "setting": "WT rhodopsin; 10 μM MTX + 5 μM MG-132, 24 h", "value": "did not"}, {"measurement": "chymotrypsin-like proteasome activity", "setting": "[1]", "value": "did not affect"}, {"measurement": "vitreous concentration", "setting": "[2]; 25 pmol IVI", "value": "about 4.7 μM"}, {"measurement": "initial vitreous concentration", "setting": "[2]; 100 pmol IVI", "value": 18.9, "unit": "µM"}, {"measurement": "multi-flash scotopic and photopic b-waves", "setting": "Rho^P23H/+ mice; four weekly IVIs from PND 15, ERG at PND 44, vs PBS", "value": "significantly increased"}, {"measurement": "photopic b-waves", "setting": "Rho^P23H/+ mice; four weekly IVIs of 100 pmol, vs PBS, at higher flash intensities", "value": "higher"}, {"measurement": "multi-flash scotopic ERG a- and b-waves", "setting": "Rho^P23H/+ mice; [3]", "value": "significantly higher"}, {"measurement": "photopic ERG responses", "setting": "Rho^P23H/+ mice; [3]", "value": "higher"}, {"measurement": "multi-flash scotopic ERG a- and b-waves", "setting": "Rho^P23H/+ mice; [4]", "value": "no effect"}, {"measurement": "photopic ERG responses", "setting": "Rho^P23H/+ mice; [4]", "value": "did not show any effects"}, {"measurement": "ratio of scotopic and photopic b- to a-wave amplitudes", "setting": "Rho^P23H/+ mice; single IVI 25 or 100 pmol", "value": "not affected"}]}]}
